This passage reports IC50 results from US11878975B2, “Substituted indole compounds useful as TLR inhibitors” (BRISTOL-MYERS SQUIBB COMPANY, priority 2017, dated 2024).

Common to all, as to assay type: cell-based
One test has as its target T1, human TLR8 (Homo sapiens, UniProt Q9NR97).
T1 construct: host or cells: HEK-Blue cells
T1 sequence (Q9NR97 27-1041): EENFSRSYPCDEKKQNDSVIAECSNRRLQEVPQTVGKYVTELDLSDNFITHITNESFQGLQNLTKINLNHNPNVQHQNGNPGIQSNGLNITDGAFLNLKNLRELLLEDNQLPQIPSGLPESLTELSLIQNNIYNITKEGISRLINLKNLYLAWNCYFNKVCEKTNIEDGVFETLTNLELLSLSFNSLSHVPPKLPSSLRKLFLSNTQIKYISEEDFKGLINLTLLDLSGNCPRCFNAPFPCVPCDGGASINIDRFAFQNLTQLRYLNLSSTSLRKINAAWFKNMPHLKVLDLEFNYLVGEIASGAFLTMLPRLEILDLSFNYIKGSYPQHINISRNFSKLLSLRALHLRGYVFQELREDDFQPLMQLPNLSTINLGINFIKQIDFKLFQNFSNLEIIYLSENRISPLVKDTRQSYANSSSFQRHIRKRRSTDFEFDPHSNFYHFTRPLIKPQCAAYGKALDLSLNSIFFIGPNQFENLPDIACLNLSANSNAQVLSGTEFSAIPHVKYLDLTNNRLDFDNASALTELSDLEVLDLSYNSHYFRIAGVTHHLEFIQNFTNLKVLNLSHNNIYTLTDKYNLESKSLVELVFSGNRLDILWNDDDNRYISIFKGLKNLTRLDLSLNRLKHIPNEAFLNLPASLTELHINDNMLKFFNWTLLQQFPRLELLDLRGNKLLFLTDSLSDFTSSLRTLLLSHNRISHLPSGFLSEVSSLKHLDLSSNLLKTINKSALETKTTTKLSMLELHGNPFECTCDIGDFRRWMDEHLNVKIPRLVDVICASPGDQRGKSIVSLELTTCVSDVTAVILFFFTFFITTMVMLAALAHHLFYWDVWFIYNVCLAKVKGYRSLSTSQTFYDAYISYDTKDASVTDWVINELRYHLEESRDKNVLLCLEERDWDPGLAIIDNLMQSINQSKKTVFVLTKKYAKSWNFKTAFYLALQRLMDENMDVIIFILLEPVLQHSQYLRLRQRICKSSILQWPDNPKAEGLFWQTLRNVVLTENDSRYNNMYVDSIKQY
As to the kind of experiment: TLR8 inhibition reporter assay (HEK-Blue cells, SEAP reporter, R848 stimulation). The settings on record: HEK-Blue cells overexpressing human TLR8, SEAP reporter, R848 15.9 μM. In outline: (§1)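 HEK-Blue cells with NF-κB/AP-1-driven SEAP reporter, pre-treated 30 min at room temperature with compound (0.05 nM-50 μM). Stimulants: gardiquimod 7.5 μM (TLR7), R848 15.9 μM (TLR8) or ODN2006 5 nM (TLR9). SEAP measured after 22 h at 37° C.; percent inhibition versus agonist-plus-DMSO and known-inhibitor wells.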
On the technique in general: Reporter assays use an easily measured gene product as a stand-in for the process of interest.

Another test addresses T2, human TLR9 (Homo sapiens, UniProt Q9NR96).
T2 construct: host or cells: HEK-Blue cells
T2 sequence (Q9NR96 26-1032): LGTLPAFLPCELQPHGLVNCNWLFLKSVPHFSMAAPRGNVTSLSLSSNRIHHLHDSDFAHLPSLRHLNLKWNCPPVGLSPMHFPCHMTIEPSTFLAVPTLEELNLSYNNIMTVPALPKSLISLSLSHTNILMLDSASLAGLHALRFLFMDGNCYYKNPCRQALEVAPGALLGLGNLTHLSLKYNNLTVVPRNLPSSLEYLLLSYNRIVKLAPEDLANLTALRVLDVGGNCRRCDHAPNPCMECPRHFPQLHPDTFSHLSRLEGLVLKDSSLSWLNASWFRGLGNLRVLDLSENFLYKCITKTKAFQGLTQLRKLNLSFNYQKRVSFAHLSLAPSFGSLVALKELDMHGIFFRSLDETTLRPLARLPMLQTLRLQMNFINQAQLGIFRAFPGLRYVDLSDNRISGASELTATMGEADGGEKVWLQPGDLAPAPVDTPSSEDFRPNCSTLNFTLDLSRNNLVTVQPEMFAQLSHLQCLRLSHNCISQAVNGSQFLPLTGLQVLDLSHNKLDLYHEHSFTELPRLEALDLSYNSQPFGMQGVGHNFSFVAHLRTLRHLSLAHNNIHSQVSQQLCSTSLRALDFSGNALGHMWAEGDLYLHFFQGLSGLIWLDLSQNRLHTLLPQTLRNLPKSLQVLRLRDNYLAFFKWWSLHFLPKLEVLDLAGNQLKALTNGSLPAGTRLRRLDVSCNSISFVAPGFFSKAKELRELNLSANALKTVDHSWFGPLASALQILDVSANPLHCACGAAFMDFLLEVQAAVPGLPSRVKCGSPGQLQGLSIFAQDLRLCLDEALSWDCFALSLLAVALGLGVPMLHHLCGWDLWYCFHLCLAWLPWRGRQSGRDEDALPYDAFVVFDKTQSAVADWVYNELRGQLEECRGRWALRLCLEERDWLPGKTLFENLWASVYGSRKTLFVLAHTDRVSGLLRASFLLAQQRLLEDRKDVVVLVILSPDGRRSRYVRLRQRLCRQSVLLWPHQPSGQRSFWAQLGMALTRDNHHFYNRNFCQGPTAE
As to the kind of experiment: TLR9 inhibition reporter assay (HEK-Blue cells, SEAP reporter, ODN2006 stimulation). The following applies: HEK-Blue cells overexpressing human TLR9, SEAP reporter, ODN2006 5 nM. In outline:
as §1

A further test concerns the target T3, human TLR7 (Homo sapiens, UniProt Q9NYK1).
T3 construct: host or cells: HEK-Blue cells
T3 sequence (Q9NYK1 27-1049): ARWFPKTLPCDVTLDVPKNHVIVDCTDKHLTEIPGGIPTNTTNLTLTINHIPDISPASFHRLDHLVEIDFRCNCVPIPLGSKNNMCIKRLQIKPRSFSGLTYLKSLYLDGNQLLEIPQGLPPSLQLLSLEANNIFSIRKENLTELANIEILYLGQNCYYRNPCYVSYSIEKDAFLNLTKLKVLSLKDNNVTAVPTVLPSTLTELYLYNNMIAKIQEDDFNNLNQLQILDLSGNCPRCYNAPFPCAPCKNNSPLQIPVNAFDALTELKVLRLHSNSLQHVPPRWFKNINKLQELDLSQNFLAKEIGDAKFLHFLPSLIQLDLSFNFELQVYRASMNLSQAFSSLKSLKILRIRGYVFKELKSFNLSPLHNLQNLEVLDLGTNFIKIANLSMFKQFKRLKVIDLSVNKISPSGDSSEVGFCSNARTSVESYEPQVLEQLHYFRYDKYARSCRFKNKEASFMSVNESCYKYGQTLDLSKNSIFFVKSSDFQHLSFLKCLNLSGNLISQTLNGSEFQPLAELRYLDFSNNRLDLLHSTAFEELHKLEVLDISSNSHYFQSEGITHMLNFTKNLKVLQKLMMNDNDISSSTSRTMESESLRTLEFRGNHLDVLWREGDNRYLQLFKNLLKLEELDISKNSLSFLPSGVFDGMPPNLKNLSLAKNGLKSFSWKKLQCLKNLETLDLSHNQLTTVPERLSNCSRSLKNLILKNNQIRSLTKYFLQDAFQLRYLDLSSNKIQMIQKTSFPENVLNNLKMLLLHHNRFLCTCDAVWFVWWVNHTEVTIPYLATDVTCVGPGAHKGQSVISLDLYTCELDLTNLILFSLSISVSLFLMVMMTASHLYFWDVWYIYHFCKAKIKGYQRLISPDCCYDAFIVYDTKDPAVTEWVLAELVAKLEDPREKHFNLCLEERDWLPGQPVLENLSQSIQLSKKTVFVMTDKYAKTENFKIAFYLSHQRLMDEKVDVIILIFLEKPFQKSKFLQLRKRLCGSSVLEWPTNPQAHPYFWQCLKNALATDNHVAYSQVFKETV
As to the kind of experiment: TLR7 inhibition reporter assay (HEK-Blue cells, SEAP reporter, gardiquimod stimulation). The settings on record: HEK-Blue cells overexpressing human TLR7, SEAP reporter, gardiquimod 7.5 μM. In outline: as §1

As for `CNCC(=O)NC1(C)CCC(c2ccc3[nH]c(-c4cc(OC)c5ncnn5c4)c(C(C)C)c3c2)CC1` (stereo not drawn) [Example 155, N-(4-(3-isopropyl-2-(8-methoxy-[1,2,4]triazolo[1,5-a]pyridin-6-yl)-1H-indol-5-yl)-1-methylcyclohexyl)-2-(methylamino)acetamide], the figures for the IC50 against human TLR8, at human TLR9 and on human TLR7 were 24 nM, 3700 nM and 6 nM, respectively.
The corresponding values for `Cc1cc(-c2[nH]c3ccc(C4CCC(C(=O)NC5CCN(C(C)C)CC5)CC4)cc3c2C(C)C)cn2ncnc12` (stereo not drawn) [Example 158] are 3.2 nM, 2290 nM and 0.47 nM.
On to `Cc1cc(-c2[nH]c3ccc(C4CCC(C(=O)N5CCOCC5)CC4)cc3c2C(C)C)cn2ncnc12` (stereo not drawn) [Example 161], for which the figures for the IC50 at human TLR8, against human TLR9 and against human TLR7 were 59 nM, 4800 nM and 3 nM, respectively.
In the same order, the values of `COc1cc(-c2[nH]c3ccc(C4CCC(NCC(=O)NC5COC5)CC4)cc3c2C(C)C)cn2ncnc12` (stereo not drawn) [Example 164] are 7.1 nM, 1920 nM and 1 nM.
For `COc1cc(-c2[nH]c3ccc(C4CCC(NCC(=O)NC5COC5)CC4)cc3c2C(C)C)cn2ncnc12` (stereo not drawn) [Example 165], the concentration for half-maximal inhibition (IC50) (as a rule, the point on the concentration scale where inhibition reaches its midpoint) was 1.7 nM on human TLR8, 1990 nM against human TLR9 and 0.31 nM at human TLR7.
The corresponding values for `CNC(=O)CNC1CCC(c2ccc3[nH]c(-c4cc(OC)c5ncnn5c4)c(C(C)C)c3c2)CC1` (stereo not drawn) [Example 166] are 18 nM, 16900 nM and 4 nM.
In the same order, the values of `CNC(=O)CNC1CCC(c2ccc3[nH]c(-c4cc(OC)c5ncnn5c4)c(C(C)C)c3c2)CC1` (stereo not drawn) [Example 167] are 0.62 nM, 1300 nM and 0.22 nM.
For the compound `COC1CCC(c2ccc3[nH]c(-c4cc(C)c5ncnn5c4)c(C(C)C)c3c2)CC1` (stereo not drawn) [Example 168, 6-(3-isopropyl-5-(4-methoxycyclohexyl)-1H-indol-2-yl)-8-methyl-[1,2,4]triazolo[1,5-a]pyridine], the IC50 came to 265 nM against human TLR8, 34400 nM against human TLR9 and 15 nM against human TLR7.
With `Cc1cc(-c2[nH]c3ccc(C4CCC(O)CC4)cc3c2C(C)C)ccn1` (stereo not drawn) [Example 173], the half-maximal inhibitory concentration (IC50) is 56 nM against human TLR8, over 50000 nM against human TLR9 and 46 nM against human TLR7.
As to `Cc1cc(-c2[nH]c3ccc(C4CCC(O)CC4)cc3c2C(C)C)ccn1` (stereo not drawn) [Example 174], the IC50 on human TLR8 was 518 nM; on human TLR9, over 50000 nM; at human TLR7, 164 nM.
In the same order, the values of `Cc1cc(-c2[nH]c3ccc(C4CCC(O)(C(F)(F)F)CC4)cc3c2C(C)C)cc(C)n1` (stereo not drawn) [Example 175, 4-(2-(2,6-dimethylpyridin-4-yl)-3-isopropyl-1H-indol-5-yl)-1-(trifluoromethyl)cyclohexanol] are 119 nM, 2140 nM and 37 nM.
The corresponding values for `Cc1cc(-c2[nH]c3ccc(C4CCC(CN(C)C)CC4)cc3c2C(C)C)cc(C)n1` (stereo not drawn) [Example 176, 1-(4-(2-(2,6-dimethylpyridin-4-yl)-3-isopropyl-1H-indol-5-yl)cyclohexyl)-N,N-dimethylmethanamine] are 55 nM, 8890 nM and 26 nM.
In the same order, the values of `COc1cc(-c2[nH]c3ccc(C4CCCNC4)cc3c2C(C)C)cn2ncnc12` (stereo not drawn) [Example 181, 6-(3-isopropyl-5-(piperidin-3-yl)-1H-indol-2-yl)-8-methoxy-[1,2,4]triazolo[1,5-a]pyridine] are 2.8 nM, 1210 nM and 0.4 nM.
As to `Cc1cc(-c2[nH]c3ccc(C4CCCNC4)cc3c2C(C)C)ccn1` (stereo not drawn) [Example 184], the IC50 against human TLR8 is 3.8 nM; on human TLR9, 866 nM; at human TLR7 it was 12 nM.
In the same order, the values of `Cc1cc(-c2[nH]c3ccc(C4CCCNC4)cc3c2C(C)C)ccn1` (stereo not drawn) [Example 185] are 1.9 nM, 1240 nM and 18 nM.
In the same order, the values of `Cc1cc(-c2[nH]c3ccc(C4CCCNC4)cc3c2C(C)C)cc(C)n1` (stereo not drawn) [Example 186] are 3.6 nM, 280 nM and 4 nM.
In the case of `Cc1cc(-c2[nH]c3ccc(C4CCCNC4)cc3c2C(C)C)cc(C)n1` (stereo not drawn) [Example 187], the IC50 worked out at 3.9 nM against human TLR8, 274 nM on human TLR9 and 2 nM against human TLR7.
In the same order, the values of `Cc1c(-c2[nH]c3ccc(C4CCCNC4)cc3c2C(C)C)ccc2ncnn12` (stereo not drawn) [Example 188] are 66 nM, 7050 nM and 161 nM.
The corresponding values for `Cc1c(-c2[nH]c3ccc(C4CCCNC4)cc3c2C(C)C)cn2ncnc2c1C` (stereo not drawn) [Example 189] are 0.23 nM, 1030 nM and 0.34 nM.
In the same order, the values of `Cc1c(-c2[nH]c3ccc(C4CCCNC4)cc3c2C(C)C)cn2ncnc2c1C` (stereo not drawn) [Example 190] are 0.35 nM, 851 nM and 0.43 nM.
